Tests used:
[1] = tested on: HA antigen of influenza virus (strain: A/Solomon); set-up: species or system BALB/c mice; settings: mouse, in vivo, sc
[2] = Observation of administered mice for abnormality / induration at topical area; format: in vivo; settings: mice administered with citrulline; compared with induration seen where Alum is administered

## NC(=O)NCCCC(N)C(=O)O (centres unmarked) [citrulline, 2-amino-5-(carbamoylamino)-pentanoic acid]
[1]
  adjuvant effect compared with Alum adjuvant (in words): same extent as that of Alum adjuvant
[2]
  abnormality / induration in mice administered: neither abnormality nor induration

— patent US10556005B2 (priority 2011, dated 2020)
